Here are results for five molecules from ChEMBL document CHEMBL1201862, “PubChem BioAssay data set” (2004).

Test systems include HOP-92; KM-20L2; UACC-257; HCT-116; MCF7; LOX IMVI; SN12C; ACHN; MDA-N; T47D; DLD-1; OVCAR-5; SNB-75; NCI-H226; A498; SW-620; IGROV-1; KM12; COLO 205; NCI/ADR-RES.
Holding throughout (assay): NCI tumour cell line growth inhibition, 48 h

Molecules are shown by their SMILES. Values joined by “and” are separate entries in the source; they are usually repeats but may differ in a detail not shown here. Equal entries are not always repeated.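 Five concentrations, 48 hours, 96-well plates. The concentration for 50% growth inhibition is given as GI50.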 Active and inactive are the calls of the source. Cut-off read from the data, not from the text of the source: active = GI50 up to about 1.1 µM and inactive = higher.

Take `NC1=NC(=O)/C(=C2\CCNC(=O)c3[nH]c(Br)cc32)N1` [HYMENIALDISINE]: the GI50 was 29.2 µM (inactive) and 40.8 µM (inactive) in the experiment on HOP-92; 70.1 µM (inactive) with KM-20L2; 23.7 µM (inactive) and 18.3 µM (inactive) in the experiment with UACC-257; 7.16 µM (inactive) and 5.57 µM (inactive) with HCT-116; 40.9 µM (inactive) and 80.7 µM (inactive) with MCF7; 4.89 µM (inactive) and 4.57 µM (inactive) in the experiment on LOX IMVI. Besides, the GI50 in the experiment on SN12C was 19.5 µM (inactive) and 11.3 µM (inactive); in the experiment with ACHN, 45.3 µM (inactive); with MDA-N, 1.9 µM (inactive); in the experiment with T47D, 7.87 µM (inactive); in the experiment on DLD-1, 37.6 µM (inactive); in the experiment on OVCAR-5, > 52.1 µM (inactive) and > 57.5 µM (inactive). Besides, the GI50 with SNB-75 is 34.8 µM (inactive) and 40 µM (inactive).

As to `COc1ccc(-c2c(C3=NCCCN3)nnn2-c2ccc([N+](=O)[O-])cc2)cc1`, the GI50 in the experiment on HOP-92, in the experiment with KM-20L2, with NCI-H226, with UACC-257, in the experiment on HCT-116 and in the experiment on A498 was > 100 µM (inactive) each time. Also, the GI50 with SW-620, in the experiment with IGROV-1, in the experiment with LOX IMVI, in the experiment with SN12C, in the experiment with ACHN and with KM12 was > 100 µM (inactive) throughout. For the same molecule, the GI50 in the experiment on DLD-1, in the experiment on OVCAR-5, with SNB-75 and in the experiment on COLO 205 was > 100 µM (inactive) in each case.

Turning to `COc1cc2c(cc1OC)C(SC)C(=O)N(Cc1cccc(OC)c1OC)CC2` (stereo unspecified), the GI50 in the experiment with HOP-92 was 0.861 µM (active); in the experiment on KM-20L2 it was 1.19 µM (inactive); in the experiment with NCI-H226, 3.21 µM (inactive); in the experiment on UACC-257, 2.95 µM (inactive); in the experiment with HCT-116 it was 1.92 µM (inactive); in the experiment with A498, 2.03 µM (inactive). Moreover, the GI50 in the experiment on SW-620 was 1.49 µM (inactive); in the experiment with MCF7, 746 nM (active); in the experiment on IGROV-1, 2.77 µM (inactive); with LOX IMVI, 2.1 µM (inactive); in the experiment with SN12C, 5.61 µM (inactive); with NCI/ADR-RES, 2.73 µM (inactive). The GI50 is 5.04 µM (inactive) with ACHN; 0.297 µM (active) with MDA-N; 4.13 µM (inactive) in the experiment on T47D; 2.65 µM (inactive) in the experiment on KM12; 2.01 µM (inactive) with DLD-1; 14.9 µM (inactive) with OVCAR-5. The GI50 with SNB-75 was 3.3 µM (inactive); in the experiment on COLO 205 it was 2.74 µM (inactive).

Take `O=C(c1ccccc1)c1nnn(Cc2ccccc2Cn2nnc(C(=O)c3ccccc3)c2C(=O)c2ccccc2)c1C(=O)c1ccccc1`: the GI50 with HOP-92 was > 100 µM (inactive); with KM-20L2, > 100 µM (inactive); in the experiment on NCI-H226 it was 47.4 µM (inactive); in the experiment on UACC-257, > 100 µM (inactive); in the experiment with HCT-116, > 100 µM (inactive); with A498, > 100 µM (inactive). For the same molecule, the GI50 in the experiment with SW-620 is > 100 µM (inactive); with IGROV-1, 94.4 µM (inactive); in the experiment on LOX IMVI, > 100 µM (inactive); in the experiment on SN12C it was > 100 µM (inactive); with ACHN it was > 100 µM (inactive); with KM12 it was > 100 µM (inactive). Also, the GI50 in the experiment on DLD-1 was > 100 µM (inactive); in the experiment on OVCAR-5, > 100 µM (inactive); in the experiment on SNB-75, > 100 µM (inactive); in the experiment on COLO 205 it was 50.5 µM (inactive).

Consider `CCCCCCC(=O)CC(=O)C(=O)Nc1ccccc1C`, for which the GI50 in the experiment with HOP-92, in the experiment on KM-20L2, in the experiment on NCI-H226, in the experiment with UACC-257, in the experiment with HCT-116 and in the experiment with A498 was > 100 µM (inactive) each time. The GI50 with SW-620 was > 39.7 µM (inactive); in the experiment with IGROV-1, > 100 µM (inactive); in the experiment on LOX IMVI, > 43 µM (inactive); in the experiment with SN12C it was > 100 µM (inactive); in the experiment with ACHN, > 100 µM (inactive); with KM12, > 100 µM (inactive). Moreover, the GI50 in the experiment on DLD-1 is > 67.5 µM (inactive); with OVCAR-5 it was > 100 µM (inactive); with SNB-75, > 100 µM (inactive); with COLO 205, > 57.1 µM (inactive).
